Laboratory results taken from patent US8012998B2, “Pyrrolidine aryl-ether as NK-3 receptor antagonists” (Hoffmann—LA Roche Inc., priority 2007, dated 2011).

Tested on: not given
Assay: not given
Details: phase II trial; negative symptoms (depression, anhedonia, social isolation, memory and attention deficits); cited from earlier work

Structure (SMILES)	activity in the treatment of negative symptoms of schizophrenia
CC(=O)N(C)C1(c2ccccc2)CCN(CCC[C@]2(c3ccc(Cl)c(Cl)c3)CCCN(C(=O)c3ccccc3)C2)CC1 [SR 142,801, Osanetant]	inactive

Same assay, conditions: phase II trial; positive symptoms (altered behaviour, delusion, hallucinations, extreme emotions, excited motor activity, incoherent speech); cited from earlier work

Structure (SMILES)	activity on positive symptoms of schizophrenia
CC(=O)N(C)C1(c2ccccc2)CCN(CCC[C@]2(c3ccc(Cl)c(Cl)c3)CCCN(C(=O)c3ccccc3)C2)CC1 [SR 142,801, Osanetant]	active

Molecular target: T1, human NK3 receptor (Homo sapiens, UniProt P29371)
T1 construct: expressed in transfected cells; host or cells: HEK293 cells (transient expression), membrane preparation
T1 sequence (P29371 1-465): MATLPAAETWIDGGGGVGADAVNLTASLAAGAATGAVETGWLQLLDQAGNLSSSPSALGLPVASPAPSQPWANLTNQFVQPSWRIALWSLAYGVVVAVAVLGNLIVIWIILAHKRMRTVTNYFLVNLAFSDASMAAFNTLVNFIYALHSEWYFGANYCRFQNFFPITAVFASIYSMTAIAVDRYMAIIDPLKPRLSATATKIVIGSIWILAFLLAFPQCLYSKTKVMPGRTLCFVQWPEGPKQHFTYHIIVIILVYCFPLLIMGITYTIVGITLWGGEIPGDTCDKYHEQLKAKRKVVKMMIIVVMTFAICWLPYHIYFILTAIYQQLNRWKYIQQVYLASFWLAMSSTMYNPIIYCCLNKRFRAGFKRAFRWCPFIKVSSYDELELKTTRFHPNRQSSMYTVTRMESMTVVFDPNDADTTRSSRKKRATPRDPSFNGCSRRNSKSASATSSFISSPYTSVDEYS
Assay: [3H]SR142801 competition binding assay (hNK3 receptor binding)
Details: [3H]SR142801 radioligand; membranes from HEK293 cells transiently expressing recombinant human NK3 receptor; Ki by Cheng-Prussoff; read-out: KiNK3 h
In short: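 Competition binding with [3H]SR142801 on membranes of HEK293 cells transiently expressing human NK3, 5 μg protein/well, in Tris-HCl/MnCl2/phosphoramidon/BSA buffer pH 7.4. Nonspecific binding defined with 10 μM SB222200; filtration then scintillation counting. IC50 from Hill fit was converted to Ki by Cheng-Prusoff; duplicate, mean ± SEM.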

Ki	Structure (SMILES)
1.4 nM	Cc1nc(-c2ccc(C(=O)N3C[C@H]([C@H](C)Oc4ccc(C#N)cn4)[C@@H](c4ccc(Cl)c(Cl)c4)C3)cc2)no1 (racemic) [Example 61, 6-((SR)-1-{(3RS,4SR)-4-(3,4-Dichloro-phenyl)-1-[4-(5-methyl-[1,2,4]oxadiazol-3-yl)-benzoyl]-pyrrolidin-3-yl}-ethoxy)-nicotinonitrile]
20.9 nM	C[C@H](Oc1ccc(C#N)cn1)[C@H]1CN(C(=O)c2ccc(C(F)(F)F)nc2)C[C@@H]1c1ccc(Cl)c(Cl)c1 (racemic) [Example 72, 6-{(SR)-1-[(3RS,4SR)-4-(3,4-Dichloro-phenyl)-1-(6-trifluoromethyl-pyridine-3-carbonyl)-pyrrolidin-3-yl]-ethoxy}-nicotinonitrile]
5.4 nM	C[C@H](Oc1ccc(C#N)cn1)[C@H]1CN(C(=O)c2ccc(C#N)nc2)C[C@@H]1c1ccc(Cl)c(Cl)c1 (racemic) [Example 52, 6-{(SR)-1-[(3RS,4SR)-4-(3,4-Dichloro-phenyl)-1-(6-cyano-pyridine-3-carbonyl)-pyrrolidin-3-yl]-ethoxy}-nicotinonitrile]
4.3 nM	C[C@H](Oc1ccc(C(F)(F)F)cn1)[C@H]1CN(C(=O)c2ccc(C#N)nc2)C[C@@H]1c1ccc(Cl)c(Cl)c1 (racemic) [Example 56, 5-{(3SR,4RS)-3-(3,4-Dichloro-phenyl)-4-[(SR)-1-(5-trifluoromethyl-pyridin-2-yloxy)-ethyl]-pyrrolidine-1-carbonyl}-pyridine-2-carbonitrile]

More lines, now with the values behind:

Structure (SMILES)	Ki
C[C@@H](Oc1ccc(C(F)(F)F)cc1)[C@@H]1CN(C(=O)c2ccc(C#N)cc2)C[C@H]1c1ccc(Cl)c(Cl)c1 (racemic) [Example 2, 4-{(3RS,4SR)-3-(3,4-Dichloro-phenyl)-4-[(RS)-1-(4-trifluoromethyl-phenoxy)-ethyl]-pyrrolidine-1-carbonyl}-benzonitrile]	35.5 nM
C[C@@H](Oc1ccc(Cl)cn1)[C@@H]1CN(C(=O)c2ccc(C#N)cc2)C[C@H]1c1ccc(Cl)c(Cl)c1 (racemic) [Example 49, 4-[(3SR,4RS)-3-[(RS)-1-(5-Chloro-pyridin-2-yloxy)-ethyl]-4-(3,4-dichloro-phenyl)-pyrrolidin-1-carbonyl]-benzonitrile]	22.3 nM
Cc1ccc(C(=O)N2C[C@@H]([C@@H](C)Oc3ccc(C(F)(F)F)cc3)[C@H](c3ccc(Cl)c(Cl)c3)C2)cn1 (racemic) [Example 6, {(3RS,4SR)-3-(3,4-Dichloro-phenyl)-4-[(RS)-1-(4-trifluoromethyl-phenoxy)-ethyl]-pyrrolidin-1-yl}-(6-methyl-pyridin-3-yl)-methanone]	63.6 nM
CC(=O)Nc1ccc(C(=O)N2C[C@@H]([C@@H](C)Oc3ccc(Cl)cn3)[C@@H](c3ccc(Cl)c(Cl)c3)C2)cn1 (racemic) [Example 38]	15.6 nM
